Test results published in US6800621B2, “Imidazo[4,5-b]-pyridiniummethyl-containing cephem compounds having broad antibacterial spectrum activity” (Shionogi & Co., Ltd., priority 1998, dated 2004).
Converted amounts (≈) assume the structure as drawn. Structures can show the parent of a compound that is named as a salt. Where two headings read alike, the source gives them in different places.

Legend:
[1] = system: E.cloacae ATCC 13047; experiment: MIC by agar dilution method; type: cell-based; conditions: E.cloacae ATCC 13047, G(−)
Experimental: (§1) The minimal inhibitory concentration (MIC) of compound (I) against various bacteria was determined by an agar dilution method. As reference compounds, used were cefozopran hydrochloride (CZOP) described in JP(A) Kokai H03-47189, cefoselis sulfate (CFSL) described in JP(A) Kokai H07-196665 and WO97/41128, compound A of which 3-side chain is a type of imidazo[4,5-c]pyridiniummethyl, and vancomycin. In the table, “Ex5-3”, for example, represents the end compound of the present invention obtained in Example 5-3, and the others are similarly expressed.

[2] = system: E.cloacae SR4321; experiment: MIC by agar dilution method; type: cell-based; conditions: E.cloacae SR4321, G(−)
Experimental: as §1

[3] = system: E.coli NIH JC-2; experiment: MIC by agar dilution method; type: cell-based; conditions: E.coli NIH JC-2, G(−)
Experimental: as §1

[4] = system: E.coli SR5028; experiment: MIC by agar dilution method; type: cell-based; conditions: E.coli SR5028, G(−)
Experimental: as §1

[5] = system: E.faecalis SR1004; experiment: MIC by agar dilution method; type: cell-based; conditions: E.faecalis SR1004, G(+)
Experimental: as §1

[6] = system: P.aeruginosa SR24; experiment: MIC by agar dilution method; type: cell-based; conditions: P.aeruginosa SR24, G(−)
Experimental: as §1

[7] = system: P.aeruginosae SR5393; experiment: MIC by agar dilution method; type: cell-based; conditions: P.aeruginosae SR5393, G(−)
Experimental: as §1

[8] = system: P.vulgaris CN-329; experiment: MIC by agar dilution method; type: cell-based; conditions: P.vulgaris CN-329, G(−)
Experimental: as §1

[9] = system: S.aureus SMITH; experiment: MIC by agar dilution method; type: cell-based
Experimental: as §1

[10] = system: S.aureus SR14; experiment: MIC by agar dilution method; type: cell-based
Experimental: as §1

[11] = system: S.aureus SR3626; experiment: MIC by agar dilution method; type: cell-based
Experimental: as §1

[12] = system: S.aureus SR3637; experiment: MIC by agar dilution method; type: cell-based
Experimental: as §1

[13] = system: S.marvescens ATCC 13880; experiment: MIC by agar dilution method; type: cell-based
Experimental: as §1

[14] = system: S.mitis SR16376; experiment: MIC by agar dilution method; type: cell-based
Experimental: as §1

[15] = system: S.pneumoniae SR16675; experiment: MIC by agar dilution method; type: cell-based
Experimental: as §1

[16] = system: S.pneumoniae Type 1; experiment: MIC by agar dilution method; type: cell-based
Experimental: as §1

[17] = system: S.aureus SR3637; experiment: ED50 mouse/S.aureus SR3637; type: in vivo
[18] = Enterobacter cloacae, ATCC13047, read-out: MIC
[19] = Enterobacter cloacae, read-out: MIC
[20] = Escherichia coli, NIHJC2, read-out: MIC
[21] = Escherichia coli, read-out: MIC
[22] = Enterococcus faecalis, read-out: MIC
[23] = Pseudomonas aeruginosa, read-out: MIC
[24] = Proteus vulgaris, CN329, read-out: MIC
[25] = Staphylococcus aureus, S.aureus SMITH, G(+), read-out: MIC
[26] = Staphylococcus aureus, S.aureus SR14, G(+), read-out: MIC
[27] = Staphylococcus aureus, S.aureus SR3626 (MRSA), G(+), read-out: MIC
[28] = Staphylococcus aureus, S.aureus SR3637 (MRSA), G(+), read-out: MIC
[29] = Streptococcus mitis, S.mitis SR16376, G(+), read-out: MIC
[30] = Streptococcus pneumoniae, S.pneumoniae SR16675, G(+), read-out: MIC
[31] = Streptococcus pneumoniae, TYPE1, S.pneumoniae Type 1, G(+), read-out: MIC

SMILES | MIC [1] [µg/mL] | MIC [2] [µg/mL] | MIC [3] [µg/mL] | MIC [4] [µg/mL] | MIC [5] [µg/mL] | MIC [6] [µg/mL] | MIC [7] [µg/mL] | MIC [8] [µg/mL] | MIC ([9]; S.aureus SMITH, G(+)) [µg/mL] | MIC ([10]; S.aureus SR14, G(+)) [µg/mL] | MIC ([11]; S.aureus SR3626 (MRSA), G(+)) [µg/mL] | MIC ([12]; S.aureus SR3637 (MRSA), G(+)) [µg/mL] | MIC ([13]; S.marvescens ATCC 13880, G(−)) [µg/mL] | MIC ([14]; S.mitis SR16376, G(+)) [µg/mL] | MIC ([15]; S.pneumoniae SR16675, G(+)) [µg/mL] | MIC ([16]; S.pneumoniae Type 1, G(+)) [µg/mL] | ED50 [17] [mg/kg] | further results
CCO/N=C(\C(=O)NC1C(=O)N2C(C(=O)[O-])=C(C[n+]3ccc4c(c3)ncn4CCCN)CSC12)c1nsc(N)n1 (stereo not shown) [A, reference compound] |  |  |  |  |  |  |  |  |  |  |  |  |  |  |  |  |  | MIC [1, 18]: 0.48 µg/mL (≈ 0.818 µM); MIC [2, 19]: 12.5 µg/mL (≈ 21.3 µM); MIC [3, 20]: 0.05 µg/mL (≈ 0.0852 µM); MIC [4, 21]: 1.56 µg/mL (≈ 2.66 µM); MIC [5, 22]: 50 µg/mL (≈ 85.2 µM); MIC [6, 23]: 0.78 µg/mL (≈ 1.33 µM); MIC ([7]; read-out: MIC): 3.13 µg/mL (≈ 5.34 µM); MIC [8, 24]: 0.1 µg/mL (≈ 0.17 µM); MIC [9, 25]: 0.78 µg/mL (≈ 1.33 µM); MIC [10, 26]: 3.13 µg/mL (≈ 5.34 µM); MIC [11, 27]: 25 µg/mL (≈ 42.6 µM); MIC [12, 28]: 25 µg/mL (≈ 42.6 µM); MIC [13]: 0.1 µg/mL (≈ 0.17 µM); MIC [14, 29]: 0.1 µg/mL (≈ 0.17 µM); MIC [15, 30]: 0.39 µg/mL (≈ 0.665 µM); MIC [16, 31]: 0.0125 µg/mL (≈ 0.0213 µM)
CO/N=C(\C(=O)N[C@@H]1C(=O)N2C(C(=O)[O-])=C(Cn3cc[n+]4ncccc34)CS[C@H]12)c1nsc(N)n1 [CZOP, cefozopran hydrochloride, reference compound] |  |  |  |  |  |  |  |  |  |  |  |  |  |  |  |  |  | MIC [1, 18]: 0.2 µg/mL; MIC [2, 19]: 6.25 µg/mL; MIC [3, 20]: 0.05 µg/mL; MIC [4, 21]: 0.78 µg/mL; MIC [5, 22]: 25 µg/mL; MIC [6, 23]: 0.78 µg/mL; MIC ([7]; read-out: MIC): 1.56 µg/mL; MIC [8, 24]: 0.2 µg/mL; MIC [9, 25]: 0.78 µg/mL; MIC [10, 26]: 0.78 µg/mL; MIC [11, 27]: 50 µg/mL; MIC [12, 28]: 50 µg/mL; MIC ([13]; S.marvescens ATCC 13880, G(−), read-out: MIC): 0.1 µg/mL; MIC [14, 29]: 0.2 µg/mL; MIC [15, 30]: 0.78 µg/mL; MIC [16, 31]: 0.05 µg/mL
CCON=C(C(=O)NC1C(=O)N2C(C(=O)[O-])=C(C[n+]3cccc4c3ncn4C3CCNC3)CSC12)c1nsc(N)n1.Cl (stereo not shown) [Ex4-1] | 0.78 | 25 | 0.2 | 3.13 | 50 | 0.78 | 3.13 | 0.78 | 0.78 | 1.56 | 3.13 | 6.25 | 0.2 | 0.1 | 0.39 | 0.025 | 11.3 | 
CCON=C(C(=O)NC1C(=O)N2C(C(=O)[O-])=C(C[n+]3cccc4c3ncn4CCCN)CSC12)c1nsc(N)n1.Cl (stereo not shown) [Ex5-2] | 0.78 | 25 | 0.39 | 3.13 | 50 | 0.78 | 3.13 | 0.78 | 0.78 | 0.78 | 3.13 | 3.13 | 0.39 | 0.2 | 0.78 | 0.025 |  | 
Cl.NCCCn1cnc2c1ccc[n+]2CC1=C(C(=O)[O-])N2C(=O)C(NC(=O)C(=NOCF)c3nsc(N)n3)C2SC1 (stereo not shown) [Ex5-3] | 0.39 | 12.5 | 0.1 | 1.56 | 100 | 1.56 | 6.25 | 0.39 | 0.78 | 0.78 | 3.13 | 3.13 | 0.1 | 0.2 | 0.78 | 0.025 | 5.66 | 
CCON=C(C(=O)NC1C(=O)N2C(C(=O)[O-])=C(C[n+]3cccc4c3ncn4CCCNC)CSC12)c1nsc(N)n1.Cl (stereo not shown) [Ex6-2] | 0.78 | 25 | 0.39 | 3.13 | 50 | 1.56 | 6.25 | 0.78 | 1.56 | 1.56 | 3.13 | 3.13 | 0.39 | 0.1 | 0.78 | 0.025 | 7.92 | 
CNCCCn1cnc2c1ccc[n+]2CC1=C(C(=O)[O-])N2C(=O)C(NC(=O)C(=NOCF)c3nsc(N)n3)C2SC1.Cl (stereo not shown) [Ex6-3] | 0.78 | 12.5 | 0.2 | 1.56 | 50 | 3.13 | 6.25 | 0.39 | 0.78 | 0.78 | 6.25 | 6.25 | 0.2 | 0.2 | 0.78 | 0.025 | 6.43 | 
CN[C@H](CC(C)C)C(=O)N[C@H]1C(=O)N[C@@H](CC(N)=O)C(=O)N[C@H]2C(=O)N[C@H]3C(=O)N[C@H](C(=O)N[C@H](C(=O)O)c4cc(O)cc(O)c4-c4cc3ccc4O)[C@H](O)c3ccc(c(Cl)c3)Oc3cc2cc(c3O[C@@H]2O[C@H](CO)[C@@H](O)[C@H](O)[C@H]2O[C@H]2C[C@](C)(N)[C@H](O)[C@H](C)O2)Oc2ccc(cc2Cl)[C@H]1O [VCM, vancomycin, reference compound] |  |  |  |  |  |  |  |  |  |  |  |  |  |  |  |  |  | MIC ([9]; Staphylococcus aureus): 0.78 µg/mL (≈ 0.538 µM); MIC ([10]; Staphylococcus aureus, SR14): 0.78 µg/mL (≈ 0.538 µM); MIC ([11]; Staphylococcus aureus, MRSA): 3.13 µg/mL (≈ 2.16 µM); MIC ([12]; Staphylococcus aureus, MRSA): 3.13 µg/mL (≈ 2.16 µM); MIC ([14]; Streptococcus mitis, SR16376): 0.39 µg/mL (≈ 0.269 µM); MIC ([15]; Streptococcus pneumoniae, SR16675): 0.2 µg/mL (≈ 0.138 µM); MIC ([16]; Streptococcus pneumoniae, TYPE1): 0.39 µg/mL (≈ 0.269 µM); ED50 ([17]; Staphylococcus aureus, read-out: ED50): 5.66 mg/kg
